Measured values: US9101638B2, “Boronic acid derivatives and therapeutic uses thereof” (Rempex Pharmaceuticals, Inc., priority 2013, dated 2015)
pIC50, pKi: −log10 of the molar value. Like-named read-outs stand apart in the source and are kept apart here.

Tests used:
CathepsinA = molecular target: T1, CathepsinA (Homo sapiens, UniProt P10619); test: Serine protease inhibition: cathepsin A; assay type: biochemical, mammalian; conditions: Table 8B; read-out: IC50 CathepsinA
T1 construct: purchased R&D Systems 1049-SE
T1 sequence (P10619 29-480): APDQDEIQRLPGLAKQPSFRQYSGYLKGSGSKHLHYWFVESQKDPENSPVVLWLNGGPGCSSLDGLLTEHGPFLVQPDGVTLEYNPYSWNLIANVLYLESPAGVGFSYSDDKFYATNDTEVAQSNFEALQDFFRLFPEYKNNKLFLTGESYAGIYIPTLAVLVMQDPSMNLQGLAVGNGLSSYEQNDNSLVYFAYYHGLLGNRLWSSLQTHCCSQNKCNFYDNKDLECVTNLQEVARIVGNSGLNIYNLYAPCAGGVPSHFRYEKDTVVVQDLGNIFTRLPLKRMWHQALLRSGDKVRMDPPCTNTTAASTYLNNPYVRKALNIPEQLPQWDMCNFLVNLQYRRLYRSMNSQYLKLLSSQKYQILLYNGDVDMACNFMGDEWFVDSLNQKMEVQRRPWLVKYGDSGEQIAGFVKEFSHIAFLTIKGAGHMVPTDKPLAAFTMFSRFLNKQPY
Description: (§1) The effect of selected BLIs on the enzymatic activity of some common mammalian serine proteases was evaluated.
(§2) 50 μl of the diluted enzyme was mixed with 50 μl of inhibitor at various concentrations and 50 μl of corresponding buffer (Table 7). Reaction mixtures were incubated for 10 min at 37° C. Subsequently, 50 μl of corresponding substrate (Table 7) was added and absorbance or fluorescence was monitored for 30 min on SpectraMax M2 plate reader (Molecular Devices). 4-(2-Aminoethyl)benzenesulfonyl fluoride hydrochloride (AEBSF) and leupeptin were used as positive controls. Rates of reaction were calculated and presented relative to “no treatment” control.

ec308 (SHV-5) [1] = test: Potentiation of aztreonam, strain ec308; assay type: cell-based; conditions: minimum BLI concentration inhibiting growth with 4 μg/mL aztreonam
ec302 (TEM-10) [2] = test: Potentiation of aztreonam, strain ec302; assay type: cell-based
EC1010 (CMY-6) [3] = assay type: cell-based
SHV-12 = SHV-12 (Klebsiella pneumoniae, UniProt P0AD64, E235K/G234S/L31Q); test: Inhibition of nitrocefin cleavage by purified SHV-12; assay type: biochemical; conditions: nitrocefin reporter substrate, purified enzyme; read-out: Ki (SHV-12, NCF)
Description: (§3) Purified enzymes were mixed with various concentrations of inhibitors in reaction buffer and incubated for 10 min at room temperature. Nitrocefin was added and substrate cleavage profiles were recorded at 490 nm every 10 sec for 10 min.

PAM1154/KPC-2 = test: Biapenem potentiation in PAM1154/KPC-2 (MexAB-OprM lacking); assay type: cell-based, Pseudomonas aeruginosa
Description: (§4) Efflux of BLIs from Pseudomonas aeruginosa by the MexAB-OprM efflux pump was also evaluated. […] Due to expression of KPC-2 both strains became resistant to biapenem. […] Potency of BLIs to potentiate biapenem in these strains was determined. […] The ratio of MPC64 values for each BLI in PAM1032/KPC-2 (efflux proficient) and PAM1154/KPC-2 (efflux deficient) was determined to generate the Efflux Index (EI).

ec308 (SHV-5) [4] = test: Potentiation of tigemonam, strain ec308; assay type: cell-based; conditions: minimum BLI concentration inhibiting growth with 4 μg/mL tigemonam
EC1010 (CMY-6) [5] = test: Potentiation of aztreonam, strain EC1010; assay type: cell-based
KP1005 (CTX-M-14) = test: Potentiation of aztreonam, strain KP1005; assay type: cell-based
KP1004 (K-2) = test: Potentiation of aztreonam, strain KP1004; assay type: cell-based; conditions: minimum BLI concentration inhibiting growth with 4 μg/mL aztreonam
KP1009 (CTX-M-15) [6] = test: Potentiation of tigemonam, strain KP1009; conditions: minimum BLI concentration inhibiting growth with 4 μg/mL tigemonam
ECL1002 = test: Potentiation of aztreonam, strain ECL1002; assay type: cell-based; conditions: minimum BLI concentration inhibiting growth with 4 μg/mL aztreonam
CathepsinG = molecular target: T2, CathepsinG (Homo sapiens, UniProt P08311); test: Serine protease inhibition: cathepsin G; assay type: biochemical, mammalian; conditions: Table 8B
T2 construct: purchased EMD Millipore 219373
T2 sequence (P08311 21-244): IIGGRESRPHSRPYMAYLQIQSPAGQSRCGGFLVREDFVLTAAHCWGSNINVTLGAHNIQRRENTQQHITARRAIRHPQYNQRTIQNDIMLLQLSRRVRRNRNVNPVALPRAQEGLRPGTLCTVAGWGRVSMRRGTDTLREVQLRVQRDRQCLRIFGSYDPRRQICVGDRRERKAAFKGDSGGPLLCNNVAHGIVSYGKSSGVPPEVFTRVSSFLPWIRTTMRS
Description: as §1, §2

P99 = P99 (Enterobacter cloacae, UniProt P05364); test: Inhibition of nitrocefin cleavage by purified P99; assay type: biochemical; conditions: nitrocefin reporter substrate, purified enzyme; read-out: Ki (P99, NCF)
Description: as §3

CTX-M-14 = CTX-M-14 (Escherichia coli, UniProt Q9L5C7); test: Inhibition of nitrocefin cleavage by purified CTX-M-14; assay type: biochemical; conditions: nitrocefin reporter substrate, purified enzyme; read-out: Ki (CTX-M-14, NCF)
Description: as §3

OXA-48 = OXA-48 (Klebsiella pneumoniae, UniProt Q6XEC0); test: Inhibition of nitrocefin cleavage by purified OXA-48; assay type: biochemical; conditions: nitrocefin reporter substrate, purified enzyme; read-out: Ki (OXA-48, NCF)
Description: as §3

ec302 (TEM-10) [7] = test: Potentiation of tigemonam, strain ec302; assay type: cell-based
KP1009 (CTX-M-15) [8] = test: Potentiation of aztreonam, strain KP1009; assay type: cell-based
PAM1032/KPC-2 = test: Biapenem potentiation in PAM1032/KPC-2 (MexAB-OprM overexpressed); assay type: cell-based, Pseudomonas aeruginosa
Description: as §4

CMY-2 = CMY-2 (Klebsiella pneumoniae, UniProt Q48434); test: Inhibition of nitrocefin cleavage by purified CMY-2; assay type: biochemical; conditions: nitrocefin reporter substrate, purified enzyme; read-out: Ki (CMY-2, NCF)
Description: as §3

CTX-M-14, sequence (Q9L5C7 entry or part of it): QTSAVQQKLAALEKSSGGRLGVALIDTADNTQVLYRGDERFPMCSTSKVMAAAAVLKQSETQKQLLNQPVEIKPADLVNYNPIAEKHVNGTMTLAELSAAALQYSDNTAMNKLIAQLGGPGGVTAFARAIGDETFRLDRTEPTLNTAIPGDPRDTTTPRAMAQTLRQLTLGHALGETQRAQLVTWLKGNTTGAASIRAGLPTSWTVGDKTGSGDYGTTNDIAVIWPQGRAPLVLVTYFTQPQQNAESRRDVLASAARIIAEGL
OXA-48, sequence (Q6XEC0 23-265 limits assumed): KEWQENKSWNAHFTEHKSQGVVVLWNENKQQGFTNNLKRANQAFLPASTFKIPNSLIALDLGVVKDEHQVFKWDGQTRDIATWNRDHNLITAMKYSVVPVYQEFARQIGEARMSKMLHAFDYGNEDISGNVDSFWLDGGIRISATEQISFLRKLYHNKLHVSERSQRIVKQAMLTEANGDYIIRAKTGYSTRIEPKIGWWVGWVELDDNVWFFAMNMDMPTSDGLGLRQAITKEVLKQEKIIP
P99, sequence (P05364 21-381): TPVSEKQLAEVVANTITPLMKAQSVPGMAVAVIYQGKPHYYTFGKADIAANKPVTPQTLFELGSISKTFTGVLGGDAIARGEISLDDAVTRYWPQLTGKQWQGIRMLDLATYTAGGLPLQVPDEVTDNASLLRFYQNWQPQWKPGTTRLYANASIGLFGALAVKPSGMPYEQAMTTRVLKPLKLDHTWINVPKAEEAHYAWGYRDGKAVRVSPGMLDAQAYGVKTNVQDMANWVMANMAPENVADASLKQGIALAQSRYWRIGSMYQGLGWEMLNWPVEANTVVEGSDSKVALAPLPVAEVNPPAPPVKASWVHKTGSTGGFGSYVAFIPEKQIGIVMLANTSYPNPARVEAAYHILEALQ
SHV-12, sequence (P0AD64 22-286 L31Q/G234S/E235K): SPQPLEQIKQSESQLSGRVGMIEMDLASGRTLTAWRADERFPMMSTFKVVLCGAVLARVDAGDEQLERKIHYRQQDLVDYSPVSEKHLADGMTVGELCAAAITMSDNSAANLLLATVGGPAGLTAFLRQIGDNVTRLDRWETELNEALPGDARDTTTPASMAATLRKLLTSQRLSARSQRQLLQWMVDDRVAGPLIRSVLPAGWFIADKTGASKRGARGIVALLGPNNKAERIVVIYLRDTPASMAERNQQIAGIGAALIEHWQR
CMY-2, sequence (Q48434 21-381, species assumed): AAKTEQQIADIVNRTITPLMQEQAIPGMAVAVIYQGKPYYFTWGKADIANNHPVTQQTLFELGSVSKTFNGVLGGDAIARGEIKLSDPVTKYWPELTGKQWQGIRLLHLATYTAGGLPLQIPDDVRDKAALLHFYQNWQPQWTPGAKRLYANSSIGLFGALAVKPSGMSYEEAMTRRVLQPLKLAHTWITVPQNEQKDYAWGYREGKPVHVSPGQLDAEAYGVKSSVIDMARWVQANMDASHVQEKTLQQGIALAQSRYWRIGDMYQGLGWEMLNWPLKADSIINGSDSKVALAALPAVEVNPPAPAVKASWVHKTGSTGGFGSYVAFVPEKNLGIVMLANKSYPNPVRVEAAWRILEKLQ

Question: With `O=C(N[C@H]1Cc2cccc(C(=O)O)c2OB1O)c1cccnc1` [Compound 12, (R)-2-hydroxy-3-(nicotinamido)-3,4-dihydro-2H-benzo[e][1,2]oxaborinine-8-carboxylic acid] as the compound, how does the pIC50 (CathepsinA) read?
Answer: 3.30 to 4.82

Question: What about the “AZT MPC4 SHV-5 ec308” value (ec308 (SHV-5) [1]) of the same compound?
Answer: Y (Y = MIC of 1 μg/mL to 10 μg/mL)

Question: What about the “AZT MPC4 TEM-10 ec302” value (ec302 (TEM-10) [2]) of the same compound?
Answer: X (key: X = MIC of less than 1 μg/mL; Y = MIC of 1 μg/mL to 10 μg/mL; Z = MIC of greater than 10 μg/mL)

Question: And the “TIG MPC4 CMY-6 EC1010” value (EC1010 (CMY-6) [3])?
Answer: Y (key: X = MIC of less than 1 μg/mL; Y = MIC of 1 μg/mL to 10 μg/mL; Z = MIC of greater than 10 μg/mL)

Question: What about the pKi (SHV-12) of the same compound?
Answer: > 9.00

Question: What about the “PAM1154/KPC-2 Biapenem MPC64” value (PAM1154/KPC-2) of the same compound?
Answer: X (key: X = Less than 10; Y = 10 to 40; Z Greater than 40)

Question: What about the “TIG MPC4 SHV-5 ec308” value (ec308 (SHV-5) [4]) of the same compound?
Answer: Y (Y = MIC of 1 μg/mL to 10 μg/mL)

Question: And the “AZT MPC4 CMY-6 EC1010” value (EC1010 (CMY-6) [5])?
Answer: Y (key: X = MIC of less than 1 μg/mL; Y = MIC of 1 μg/mL to 10 μg/mL; Z = MIC of greater than 10 μg/mL)

Question: What about the “AZT MPC4 CTX-M-14 KP1005” value (KP1005 (CTX-M-14)) of the same compound?
Answer: Y (key: X = MIC of less than 1 μg/mL; Y = MIC of 1 μg/mL to 10 μg/mL; Z = MIC of greater than 10 μg/mL)

Question: And the “AZT MPC4 K-2 KP1004” value (KP1004 (K-2))?
Answer: Y (Y = MIC of 1 μg/mL to 10 μg/mL)

Question: What about the “TIG MPC4 CTX-M-15 KP1009” value (KP1009 (CTX-M-15) [6]) of the same compound?
Answer: Y (Y = MIC of 1 μg/mL to 10 μg/mL)

Question: And the “AZT MPC4 ECL1002” value (ECL1002)?
Answer: X (X = MIC of less than 1 μg/mL)

Question: And the pIC50 (CathepsinG)?
Answer: > 4.82

Question: What about the pKi (P99) of the same compound?
Answer: > 9.00

Question: What about the pKi (CTX-M-14) of the same compound?
Answer: > 9.00

Question: And the pKi (OXA-48)?
Answer: > 9.00

Question: And the “TIG MPC4 TEM-10 ec302” value (ec302 (TEM-10) [7])?
Answer: Y (key: X = MIC of less than 1 μg/mL; Y = MIC of 1 μg/mL to 10 μg/mL; Z = MIC of greater than 10 μg/mL)

Question: And the “AZT MPC4 CTX-M-15 KP1009” value (KP1009 (CTX-M-15) [8])?
Answer: Y (key: X = MIC of less than 1 μg/mL; Y = MIC of 1 μg/mL to 10 μg/mL; Z = MIC of greater than 10 μg/mL)

Question: And the “PAM1032/KPC-2 Biapenem MPC64” value (PAM1032/KPC-2; BLI potency to decrease biapenem MIC 64-fold, 32 to 0.5 μg/ml, efflux proficient strain)?
Answer: Z (Z Greater than 40)

Question: What does the source list for `NC(=O)CC(=O)N[C@H]1Cc2cccc(C(=O)O)c2OB1O` [Compound 16, (R)-3-(3-amino-3-oxopropanamido)-2-hydroxy-3,4-dihydro-2H-benzo[e][1,2]oxaborinine-8-carboxylic acid]?
Answer: AZT MPC4 SHV-5 ec308 (ec308 (SHV-5) [1]): X (X = MIC of less than 1 μg/mL); AZT MPC4 TEM-10 ec302 (ec302 (TEM-10) [2]): X (key: X = MIC of less than 1 μg/mL; Y = MIC of 1 μg/mL to 10 μg/mL; Z = MIC of greater than 10 μg/mL); TIG MPC4 CMY-6 EC1010 (EC1010 (CMY-6) [3]): X (key: X = MIC of less than 1 μg/mL; Y = MIC of 1 μg/mL to 10 μg/mL; Z = MIC of greater than 10 μg/mL); pKi (SHV-12): > 9.00; PAM1154/KPC-2 Biapenem MPC64 (PAM1154/KPC-2): X (key: X = Less than 10; Y = 10 to 40; Z Greater than 40); TIG MPC4 SHV-5 ec308 (ec308 (SHV-5) [4]): Y (Y = MIC of 1 μg/mL to 10 μg/mL); AZT MPC4 CTX-M-14 KP1005 (KP1005 (CTX-M-14)): X (key: X = MIC of less than 1 μg/mL; Y = MIC of 1 μg/mL to 10 μg/mL; Z = MIC of greater than 10 μg/mL); AZT MPC4 K-2 KP1004 (KP1004 (K-2)): Y (Y = MIC of 1 μg/mL to 10 μg/mL); TIG MPC4 CTX-M-15 KP1009 (KP1009 (CTX-M-15) [6]): X (X = MIC of less than 1 μg/mL); AZT MPC4 ECL1002 (ECL1002): X (X = MIC of less than 1 μg/mL); pKi (P99): 8.00 to 9.00; pKi (CTX-M-14): 8.00 to 9.00; pKi (OXA-48): 8.00 to 9.00; TIG MPC4 TEM-10 ec302 (ec302 (TEM-10) [7]): Y (key: X = MIC of less than 1 μg/mL; Y = MIC of 1 μg/mL to 10 μg/mL; Z = MIC of greater than 10 μg/mL); PAM1032/KPC-2 Biapenem MPC64 (PAM1032/KPC-2): X (key: X = Less than 10; Y = 10 to 40; Z Greater than 40); pKi (CMY-2): 8.00 to 9.00
